Test results reported in patent US20240174723A1, “STAPLED ANTIMICROBIAL PEPTIDES (STAMPS) AND USES THEREOF” (Lytica Therapeutics, Inc., priority 2021, published 2024).
Values after ≈ are worked out from the molar mass of the structure shown. Values belong to the compound of their own block, whether it stands above or below them. Positions of bridges follow the written chain, without caps; N, C: chain ends. Non-standard residues stand in square brackets, D forms with d. Residues, ends and D or L forms follow the SMILES beside them. S5 = C=CCCC[C@](C)(N)C(=O)O; PEG3 = NCCOCCOCCOCCC(=O)O; Dab = NCC[C@H](N)C(=O)O; Dap = NC[C@H](N)C(=O)O

How the values were obtained:
[1] = in vitro; type: cell-based; settings: human, Inhibitory Concentration at 50% Cytotoxicity (IC50) Human Liver Cells (HepG2)
How it was run: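 HepG2 cells in EMEM with 10% FBS, allowed 4 h to attach, then exposed to serial dilutions of StAMPs (from a 5 mg/mL water stock) or vehicle. After 48 h at 37 °C, viability read by CellTiter-Glo luminescence.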

[2] = in vitro; type: cell-based; settings: human
How it was run: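 RPTEC or HepG2 cells plated overnight, given fresh media, then serial StAMP dilutions (from 5 mg/mL water stock) or vehicle at 37 °C. Cytotoxicity read as LDH release into media, absorbance 490 nm; renal toxicity after 90 min, liver toxicity after 48 h incubation.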

[3] = system: S. aureus; type: cell-based, Staphylococcus aureus
How it was run: (§1)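 Broth microdilution adapted from CLSI in Mueller-Hinton broth or cation-adjusted MHB. Overnight 37 °C cultures were regrown 3-4 h, then added to serially diluted peptide at a final 5×10^5 CFU/ml. After 20-24 h at 37 °C, MIC was the lowest peptide concentration with no visible growth.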

[4] = system: E. coli; type: cell-based, Escherichia coli
How it was run: as §1

[5] = system: K. pneumoniae; type: cell-based, Klebsiella pneumoniae
How it was run: as §1

[6] = system: P. aeruginosa; type: cell-based, Pseudomonas aeruginosa
How it was run: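 Broth microdilution adapted from CLSI in MHB or cation-adjusted MHB; log-phase P. aeruginosa at 5×10^5 CFU/ml final with serially diluted stapled peptides. Incubated 20-24 h at 37 °C; MIC is the lowest concentration without visible growth.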

[7] = system: A. baumannii; type: cell-based, Acinetobacter baumannii
How it was run: as §1

SMILES: CC(C)[C@@H]1NC(=O)[C@@](C)(NC(=O)[C@H](C)NC(=O)[C@H](CCCCN)NC(=O)CNC(=O)[C@H](Cc2ccccc2)NC(=O)[C@H](CCCCN)NC(=O)[C@H](CCCCN)NC(=O)[C@H](CCCCN)NC(=O)[C@H](CO)NC(=O)[C@H](Cc2c[nH]cn2)NC(=O)[C@]2(C)CCCC=CCCC[C@](C)(NC(=O)CN)C(=O)NCC(=O)N[C@@H](CCCCN)C(=O)N[C@@H](Cc3ccccc3)C(=O)N2)CCCC=CCCC[C@@](C)(C(=O)N[C@@H](C)C(=O)N[C@@H](CCCCN)C(=O)N[C@@H](CCCCN)C(N)=O)NC(=O)[C@H](CCC(N)=O)NC(=O)CNC1=O [compound 17] (H-G[S5]GKF[S5]HSKKKFGKA[S5]VGQ[S5]AKK-NH2; staple 2-6, 16-20)
- IC50 at 48 hours [1]: > 200 µg/mL
- IC50 at 90 min [2]: ~180 µg/mL (≈ 71.1 µM)
- Minimum Inhibitory Concentration (MIC) S. aureus [3]: >64 µg/mL
- Minimum Inhibitory Concentration (MIC) E. coli [4]: 3 µg/mL
- Minimum Inhibitory Concentration (MIC) K. pneumoniae [5]: 32 µg/mL
- Minimum Inhibitory Concentration (MIC) P. aeruginosa [6]: 4 µg/mL
- Minimum Inhibitory Concentration (MIC) A. baumannii [7]: 2 µg/mL

SMILES: CC(C)[C@@H]1NC(=O)[C@@](C)(NC(=O)[C@H](C)NC(=O)[C@H](CCCCN)NC(=O)CNC(=O)[C@H](Cc2ccccc2)NC(=O)[C@H](CCCCN)NC(=O)[C@H](CCCCN)NC(=O)[C@H](CCCCN)NC(=O)[C@H](CO)NC(=O)[C@H](CCCCN)NC(=O)[C@]2(C)CCCC=CCCC[C@](C)(NC(=O)CN)C(=O)NCC(=O)N[C@@H](CCCCN)C(=O)N[C@@H](Cc3ccccc3)C(=O)N2)CCCC=CCCC[C@@](C)(C(=O)N[C@@H](C)C(=O)N[C@@H](CCCCN)C(=O)N[C@@H](CCCCN)C(N)=O)NC(=O)[C@H](CCC(=O)O)NC(=O)[C@H](Cc2ccccc2)NC1=O [compound 20] (H-G[S5]GKF[S5]KSKKKFGKA[S5]VFE[S5]AKK-NH2; staple 2-6, 16-20)
- IC50 at 48 hours [1]: 105 µg/mL (≈ 40.2 µM)
- IC50 at 90 min [2]: 70 µg/mL (≈ 26.8 µM)
- Minimum Inhibitory Concentration (MIC) S. aureus [3]: 64 µg/mL
- Minimum Inhibitory Concentration (MIC) E. coli [4]: 2 µg/mL
- Minimum Inhibitory Concentration (MIC) K. pneumoniae [5]: 2 µg/mL
- Minimum Inhibitory Concentration (MIC) P. aeruginosa [6]: 2 µg/mL
- Minimum Inhibitory Concentration (MIC) A. baumannii [7]: 2 µg/mL

SMILES: CC(C)[C@@H]1NC(=O)[C@@](C)(NC(=O)[C@H](C)NC(=O)[C@H](CCCCN)NC(=O)CNC(=O)[C@H](Cc2ccccc2)NC(=O)[C@H](CCCCN)NC(=O)[C@H](CCCCN)NC(=O)[C@H](CCCCN)NC(=O)[C@H](CCCCN)NC(=O)[C@H](Cc2c[nH]cn2)NC(=O)[C@]2(C)CCCC=CCCC[C@](C)(NC(=O)CN)C(=O)NCC(=O)N[C@@H](CCCCN)C(=O)N[C@@H](Cc3ccccc3)C(=O)N2)CCCC=CCCC[C@@](C)(C(=O)N[C@@H](C)C(=O)N[C@@H](CCCCN)C(=O)N[C@@H](CCCCN)C(N)=O)NC(=O)[C@H](CCC(=O)O)NC(=O)CNC1=O [compound 3] (H-G[S5]GKF[S5]HKKKKFGKA[S5]VGE[S5]AKK-NH2; staple 2-6, 16-20)
- IC50 at 48 hours [1]: > 200 µg/mL
- IC50 at 90 min [2]: > 200 µg/mL
- Minimum Inhibitory Concentration (MIC) S. aureus [3]: >64 µg/mL
- Minimum Inhibitory Concentration (MIC) E. coli [4]: 4 µg/mL
- Minimum Inhibitory Concentration (MIC) K. pneumoniae [5]: 16 µg/mL
- Minimum Inhibitory Concentration (MIC) P. aeruginosa [6]: 4 µg/mL
- Minimum Inhibitory Concentration (MIC) A. baumannii [7]: 4 µg/mL

Further lines, with some results ahead:

- IC50 at 90 min [2]: 30 µg/mL (≈ 11.1 µM)
- Minimum Inhibitory Concentration (MIC) S. aureus [3]: >64 µg/mL
- Minimum Inhibitory Concentration (MIC) E. coli [4]: 16 µg/mL
- Minimum Inhibitory Concentration (MIC) K. pneumoniae [5]: 8 µg/mL
- Minimum Inhibitory Concentration (MIC) P. aeruginosa [6]: 16 µg/mL
- Minimum Inhibitory Concentration (MIC) A. baumannii [7]: 4 µg/mL
SMILES: CC(C)[C@@H]1NC(=O)[C@@](C)(NC(=O)[C@H](C)NC(=O)[C@H](CCCCN)NC(=O)[C@H](Cc2c[nH]c3ccccc23)NC(=O)[C@H](Cc2c[nH]c3ccccc23)NC(=O)[C@H](CCCCN)NC(=O)[C@H](CCCCN)NC(=O)[C@H](CCCCN)NC(=O)[C@H](CO)NC(=O)[C@H](Cc2c[nH]cn2)NC(=O)[C@]2(C)CCCC=CCCC[C@](C)(NC(=O)CN)C(=O)NCC(=O)N[C@@H](CCCCN)C(=O)N[C@@H](Cc3ccccc3)C(=O)N2)CCCC=CCCC[C@@](C)(C(=O)N[C@@H](C)C(=O)N[C@@H](CCCCN)C(=O)N[C@@H](CCCCN)C(N)=O)NC(=O)[C@H](CCC(=O)O)NC(=O)CNC1=O [compound 62] (H-G[S5]GKF[S5]HSKKKWWKA[S5]VGE[S5]AKK-NH2; staple 2-6, 16-20)
- IC50 at 48 hours [1]: 35 µg/mL (≈ 13 µM)

- IC50 at 90 min [2]: 150 µg/mL (≈ 57 µM)
- Minimum Inhibitory Concentration (MIC) S. aureus [3]: >64 µg/mL
- Minimum Inhibitory Concentration (MIC) E. coli [4]: 8 µg/mL
- Minimum Inhibitory Concentration (MIC) K. pneumoniae [5]: 64 µg/mL
- Minimum Inhibitory Concentration (MIC) P. aeruginosa [6]: 8 µg/mL
- Minimum Inhibitory Concentration (MIC) A. baumannii [7]: 4 µg/mL
SMILES: CC(C)[C@@H]1NC(=O)[C@@](C)(NC(=O)[C@H](C)NC(=O)[C@H](CCCCN)NC(=O)CNC(=O)[C@H](Cc2ccccc2)NC(=O)[C@H](CCCCN)NC(=O)[C@H](CCCCN)NC(=O)[C@H](CCCCN)NC(=O)[C@H](Cc2c[nH]c3ccccc23)NC(=O)[C@H](Cc2c[nH]cn2)NC(=O)[C@]2(C)CCCC=CCCC[C@](C)(NC(=O)CN)C(=O)NCC(=O)N[C@@H](CCCCN)C(=O)N[C@@H](Cc3ccccc3)C(=O)N2)CCCC=CCCC[C@@](C)(C(=O)N[C@@H](C)C(=O)N[C@@H](CCCCN)C(=O)N[C@@H](CCCCN)C(N)=O)NC(=O)[C@H](CCC(=O)O)NC(=O)CNC1=O [compound 61] (H-G[S5]GKF[S5]HWKKKFGKA[S5]VGE[S5]AKK-NH2; staple 2-6, 16-20)
- IC50 at 48 hours [1]: > 200 µg/mL

- IC50 at 90 min [2]: 671 µg/mL (≈ 242 µM)
- Minimum Inhibitory Concentration (MIC) S. aureus [3]: >64 µg/mL
- Minimum Inhibitory Concentration (MIC) E. coli [4]: 2 µg/mL
- Minimum Inhibitory Concentration (MIC) K. pneumoniae [5]: 4 µg/mL
- Minimum Inhibitory Concentration (MIC) P. aeruginosa [6]: 4 µg/mL
- Minimum Inhibitory Concentration (MIC) A. baumannii [7]: 2 µg/mL
SMILES: CC(C)[C@@H]1NC(=O)[C@@](C)(NC(=O)[C@H](C)NC(=O)[C@H](CCCCN)NC(=O)CNC(=O)[C@H](Cc2ccccc2)NC(=O)[C@H](CCCCN)NC(=O)[C@H](CCCCN)NC(=O)[C@H](CCCCN)NC(=O)[C@H](CCCCN)NC(=O)[C@H](CCCCN)NC(=O)[C@]2(C)CCCC=CCCC[C@](C)(NC(=O)CN)C(=O)NCC(=O)N[C@@H](CCCCN)C(=O)N[C@@H](Cc3ccccc3)C(=O)N2)CCCC=CCCC[C@@](C)(C(=O)N[C@@H](C)C(=O)N[C@@H](CCCCN)C(=O)N[C@@H](CCCCN)C(=O)NCCOCCOCCOCCC(N)=O)NC(=O)[C@H](CCC(=O)O)NC(=O)CNC1=O [compound 73] (H-G[S5]GKF[S5]KKKKKFGKA[S5]VGE[S5]AKK[PEG3]-NH2; staple 2-6, 16-20)
- IC50 at 48 hours [1]: 407 µg/mL (≈ 147 µM)

- IC50 at 90 min [2]: 115 µg/mL (≈ 45.3 µM)
- Minimum Inhibitory Concentration (MIC) S. aureus [3]: >64 µg/mL
- Minimum Inhibitory Concentration (MIC) E. coli [4]: 2 µg/mL
- Minimum Inhibitory Concentration (MIC) K. pneumoniae [5]: 8 µg/mL
- Minimum Inhibitory Concentration (MIC) P. aeruginosa [6]: 4 µg/mL
- Minimum Inhibitory Concentration (MIC) A. baumannii [7]: 2 µg/mL
SMILES: CC(C)[C@@H]1NC(=O)[C@@](C)(NC(=O)[C@H](C)NC(=O)[C@H](CCN)NC(=O)CNC(=O)[C@H](Cc2ccccc2)NC(=O)[C@H](CCCCN)NC(=O)[C@H](CCCCN)NC(=O)[C@H](CCCCN)NC(=O)[C@H](CCCCN)NC(=O)[C@H](CCCCN)NC(=O)[C@]2(C)CCCC=CCCC[C@](C)(NC(=O)CN)C(=O)NCC(=O)N[C@@H](CCCCN)C(=O)N[C@@H](Cc3ccccc3)C(=O)N2)CCCC=CCCC[C@@](C)(C(=O)N[C@@H](C)C(=O)N[C@@H](CCCCN)C(=O)N[C@@H](CCCCN)C(N)=O)NC(=O)[C@H](CCC(=O)O)NC(=O)CNC1=O [compound 39] (H-G[S5]GKF[S5]KKKKKFG[Dab]A[S5]VGE[S5]AKK-NH2; staple 2-6, 16-20)
- IC50 at 48 hours [1]: 140 µg/mL (≈ 55.2 µM)

- IC50 at 90 min [2]: > 200 µg/mL
- Minimum Inhibitory Concentration (MIC) S. aureus [3]: 64 µg/mL
- Minimum Inhibitory Concentration (MIC) E. coli [4]: 1 µg/mL
- Minimum Inhibitory Concentration (MIC) K. pneumoniae [5]: 16 µg/mL
- Minimum Inhibitory Concentration (MIC) P. aeruginosa [6]: 16 µg/mL
- Minimum Inhibitory Concentration (MIC) A. baumannii [7]: 16 µg/mL
SMILES: CC(C)[C@@H]1NC(=O)[C@@](C)(NC(=O)[C@H](C)NC(=O)[C@H](CN)NC(=O)CNC(=O)[C@H](Cc2ccccc2)NC(=O)[C@H](CN)NC(=O)[C@H](CN)NC(=O)[C@H](CN)NC(=O)[C@H](CN)NC(=O)[C@H](CN)NC(=O)[C@]2(C)CCCC=CCCC[C@](C)(NC(=O)CN)C(=O)NCC(=O)N[C@@H](CN)C(=O)N[C@@H](Cc3ccccc3)C(=O)N2)CCCC=CCCC[C@@](C)(C(=O)N[C@@H](C)C(=O)N[C@@H](CN)C(=O)N[C@@H](CN)C(=O)NCC(N)=O)NC(=O)[C@H](CCC(=O)O)NC(=O)CNC1=O [compound 76] (H-G[S5]G[Dap]F[S5][Dap][Dap][Dap][Dap][Dap]FG[Dap]A[S5]VGE[S5]A[Dap][Dap]G-NH2; staple 2-6, 16-20)
- IC50 at 48 hours [1]: > 200 µg/mL
